According to ChEMBL document CHEMBL1156596, “Overcoming undesirable CYP1A2 inhibition of pyridylnaphthalene-type aldosterone synthase inhibitors: influence of heteroaryl derivatization on potency and selectivity” (J Med Chem, 2008):

What was measured:
Homo sapiens = organism: Homo sapiens; assay: Selectivity ratio of IC50 for human CYP11B1 to IC50 for human CYP11B2
[1] = biological target: T1, Cytochrome P450 11B2, mitochondrial (Homo sapiens, UniProt P19099)
T1 sequence (P19099 whole entry): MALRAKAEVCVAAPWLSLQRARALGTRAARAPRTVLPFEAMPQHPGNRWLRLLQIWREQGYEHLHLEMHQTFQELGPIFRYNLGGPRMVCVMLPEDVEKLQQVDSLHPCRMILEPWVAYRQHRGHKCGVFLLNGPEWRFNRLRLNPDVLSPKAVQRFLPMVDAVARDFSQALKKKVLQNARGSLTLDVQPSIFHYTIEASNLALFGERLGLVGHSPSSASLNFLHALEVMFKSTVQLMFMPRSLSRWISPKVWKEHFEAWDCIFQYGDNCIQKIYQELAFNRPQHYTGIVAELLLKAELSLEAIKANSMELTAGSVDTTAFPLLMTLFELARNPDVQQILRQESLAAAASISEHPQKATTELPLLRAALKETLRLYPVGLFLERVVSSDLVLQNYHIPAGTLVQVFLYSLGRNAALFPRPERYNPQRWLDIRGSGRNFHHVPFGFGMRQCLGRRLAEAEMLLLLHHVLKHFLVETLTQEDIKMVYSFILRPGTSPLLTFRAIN

[2] = biological target: T2, Cytochrome P450 11B1, mitochondrial (Homo sapiens, UniProt P15538)
T2 sequence (P15538 whole entry): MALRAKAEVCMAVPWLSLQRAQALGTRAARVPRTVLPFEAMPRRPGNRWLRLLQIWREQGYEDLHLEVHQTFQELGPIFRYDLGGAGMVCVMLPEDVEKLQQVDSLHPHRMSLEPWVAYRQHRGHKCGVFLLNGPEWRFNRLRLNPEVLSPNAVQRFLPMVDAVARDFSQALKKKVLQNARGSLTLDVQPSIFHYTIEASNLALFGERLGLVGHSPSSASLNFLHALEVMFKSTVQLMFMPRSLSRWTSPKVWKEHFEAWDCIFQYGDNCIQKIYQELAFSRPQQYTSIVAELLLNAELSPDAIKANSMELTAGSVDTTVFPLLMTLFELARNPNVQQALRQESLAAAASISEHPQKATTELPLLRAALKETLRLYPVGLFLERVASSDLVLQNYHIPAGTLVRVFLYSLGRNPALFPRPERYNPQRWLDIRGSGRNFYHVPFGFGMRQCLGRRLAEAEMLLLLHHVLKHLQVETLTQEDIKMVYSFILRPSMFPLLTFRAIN

CYP1A2 = biological target: T3, CYP1A2 (Homo sapiens, UniProt P05177); assay: Inhibition of human recombinant CYP1A2 expressed in insect microsomes at 2 uM; format: ADME, Microsome
T3 sequence (P05177 whole entry): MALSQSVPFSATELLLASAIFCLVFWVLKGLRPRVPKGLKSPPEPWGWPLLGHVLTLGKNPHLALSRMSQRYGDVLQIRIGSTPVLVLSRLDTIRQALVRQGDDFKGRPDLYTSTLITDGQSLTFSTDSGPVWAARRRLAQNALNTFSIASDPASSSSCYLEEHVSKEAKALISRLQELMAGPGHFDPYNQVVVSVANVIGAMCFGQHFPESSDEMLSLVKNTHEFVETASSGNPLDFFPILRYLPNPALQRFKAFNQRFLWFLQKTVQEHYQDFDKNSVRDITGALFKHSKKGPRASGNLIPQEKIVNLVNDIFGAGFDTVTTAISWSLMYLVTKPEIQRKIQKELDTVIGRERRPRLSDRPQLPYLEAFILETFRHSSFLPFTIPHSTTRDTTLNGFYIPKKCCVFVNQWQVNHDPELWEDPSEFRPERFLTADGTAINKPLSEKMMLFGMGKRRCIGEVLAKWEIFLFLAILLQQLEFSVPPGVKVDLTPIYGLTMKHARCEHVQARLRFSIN

SMILES | Ratio IC50 (Homo sapiens) | IC50 [1] | IC50 [2] | inhibition at 2 µM (CYP1A2)
COC(=O)c1cncc(-c2ccc3cc(OC)ccc3c2)c1 | 19 | 0.8 nM | 15 nM | –
COc1ccc2cc(-c3cnccc3C)ccc2c1 | 143 | 0.8 nM | 114 nM | 98%
N#Cc1ccc2c(c1)CCC(c1cccnc1)=C2 | 103 | 4.5 nM | 461 nM | 91%
COc1ccc2cc(-c3cncc(CO)c3)ccc2c1 | 68 | 9.1 nM | 614 nM | 93%
COc1ccc2cc(-c3cncc(O)c3)ccc2c1 | 95 | 94 nM | 8920 nM | 93%
COc1ccc2cc(-c3cncc(C(C)OC)c3)ccc2c1 (stereo not drawn) | 50 | 0.2 nM | 10 nM | –
COc1ccc2cc(-c3cnccc3CO)ccc2c1 | 80 | 22 nM | 1760 nM | 92%
CCOc1cncc(-c2ccc3cc(OC)ccc3c2)c1 | 73 | 5.1 nM | 373 nM | 85%
COc1ccc2c(c1)CC(C)C(c1cncc3ccccc13)=C2 (stereo not drawn) | 128 | 0.5 nM | 64 nM | 6%
COc1ccc2cc(-c3cncc(C(C)O)c3)ccc2c1 (stereo not drawn) | 198 | 0.5 nM | 99 nM | 78%
COc1ccc2cc(-c3cncc(CC(=O)O)c3)ccc2c1 | 31 | 1220 nM | 37800 nM | –
COc1ccc2cc(-c3cncc(C(N)=O)c3)ccc2c1 | 442 | 94 nM | 41600 nM | –
Cc1nc2c([nH]1)c(=O)n(C)c(=O)n2Cc1ccco1 [FURAFYLLINE] | – | – | – | 55%
Cc1ccncc1-c1ccc2cc(C#N)ccc2c1 | 87 | 0.6 nM | 52 nM | 86%
COc1cncc(C2=Cc3ccc(OC)cc3CC2C)c1 (stereo not drawn) | 83 | 1.2 nM | 100 nM | 18%
COc1cncc(-c2cc3ccc(OC)cc3cc2C)c1 | 230 | 3.8 nM | 875 nM | 91%
COCc1cncc(-c2ccc3cc(OC)ccc3c2)c1 | 155 | 0.2 nM | 31 nM | 83%
COCc1ccncc1-c1ccc2cc(OC)ccc2c1 | 198 | 2.2 nM | 435 nM | 97%
COC(=O)Cc1cncc(-c2ccc3cc(OC)ccc3c2)c1 | 29 | 6.9 nM | 199 nM | –
COc1ccc2cc(-c3cncc4ccccc34)c(C)cc2c1 | 272 | 3.1 nM | 843 nM | 45%
COc1ccc2cc(-c3cccnc3)c(C)cc2c1 | 150 | 7 nM | 1050 nM | 93%
COc1ccc2c(c1)CCC(c1cccnc1)=C2 | – | – | – | 98%
COc1ccc2cc(-c3cncc(-c4ccccc4)c3)ccc2c1 | 32 | 4.8 nM | 151 nM | –
COc1ccc2c(c1)CC(C)C(c1cccnc1)=C2 (stereo not drawn) | 79 | 3.3 nM | – | 73%
